pKi: −log10 of the molar value.

For this assay, the target named is T1, Glucose-6-phosphate dehydrogenase (camel liver G6PD) (Camelus dromedarius, UniProt G1EHI3).
T1 construct: native enzyme purified from camel liver (subunit 64 kDa, native 194 kDa)
The assay can be described thus: enzyme inhibition kinetics of purified enzyme (Lineweaver-Burk, Hill plot, slope replot). The format is biochemical.

T1 sequence (G1EHI3 entry or part of it): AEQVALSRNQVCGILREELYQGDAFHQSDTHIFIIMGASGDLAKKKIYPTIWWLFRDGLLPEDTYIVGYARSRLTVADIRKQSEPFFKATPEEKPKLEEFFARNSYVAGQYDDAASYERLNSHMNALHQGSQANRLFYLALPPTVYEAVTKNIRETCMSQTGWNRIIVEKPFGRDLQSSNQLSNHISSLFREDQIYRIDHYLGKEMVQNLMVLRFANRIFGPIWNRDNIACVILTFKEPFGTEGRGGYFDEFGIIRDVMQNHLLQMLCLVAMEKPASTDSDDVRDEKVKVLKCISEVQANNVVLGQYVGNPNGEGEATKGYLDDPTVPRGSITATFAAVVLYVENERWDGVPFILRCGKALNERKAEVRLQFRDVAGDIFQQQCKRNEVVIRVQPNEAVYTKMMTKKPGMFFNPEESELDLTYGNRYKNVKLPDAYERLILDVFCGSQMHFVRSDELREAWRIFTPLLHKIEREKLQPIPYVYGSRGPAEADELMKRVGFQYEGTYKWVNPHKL

Turning to `NC(=O)C1=CN([C@@H]2O[C@H](COP(=O)(O)OP(=O)(O)OC[C@H]3O[C@@H](n4cnc5c(N)ncnc54)[C@H](OP(=O)(O)O)[C@@H]3O)[C@@H](O)[C@H]2O)C=CC1` [NADPH], the pKi (usually the negative decadic logarithm of the Ki, by convention in mol/L) was 4.46.

For the origin of these results see PMC4290037, “Purification and Characterization of Glucose-6-Phosphate Dehydrogenase from Camel Liver” (Enzyme Research, 2014).
